# Measured values as given in patent US10662210B2, “Compositions and methods comprising osmium for the treatment of cancers” (Massachusetts Institute of Technology, priority 2014, dated 2020).
# Tests used:
# A2780 cells = assay: Cytotoxicity MTT assay with pathway and cell death inhibitors; format: cell-based, human; conditions: salubrinal 10 μM
# Description: This finding led to the investigation of the possibility that 4 may induce endoplasmic reticulum (ER) stress. Co-administration of 4 and salubrinal (10 μM), a known ER stress inhibitor, reduced the cytotoxicity of 4 in A2780 cells. […] To further validate the ER as the main target for 4, the expression of proteins related to the unfolded protein response (UPR) was monitored. […] ER membrane expansion is widely associated with ER stress. With this fact in mind the ER size of A2780 cells upon incubation with 4 were examined using fluorescence microscopy. Relative to untreated controls (FIG. 3B), cells exposed to 4 (10 μM) for 4 h had 25.1% larger ER coverage (FIG. 3C). The ER size relative to the whole cell of the untreated controls was about 30% and the ER size relative to the whole cell of the treated samples was about 55%.
# Having established the intracellular targets of 2 and 4, the role of p53, a cell cycle and apoptosis regulator, in the cellular responses evoked was investigated. […] Therefore, p53 played a fundamental role in coordinating the cellular response to 2-induced DNA damage. […] (FIG. 13). […] To relate p53 to potency, cytotoxicity studies were conducted in the presence of p53 inhibitors pifithrin-α and pifithrin-μ. (both 10 μM). […] The IC50 values of compound 2 in the absence and presence of p53 inhibitor pifithrin-μ after 72 hours incubation was about 2 μM and about 30 μM, respectively.
# (§1) The colorimetric MTT assay was used to determine the toxicity of the osmium complexes and cisplatin. Cells (2×10^3) were seeded in each well of a 96-well plate. After incubating the cells overnight, various concentrations of test compound (0.3-100 μM) were added and incubated for 72 h (total volume 200 μL). The test compounds were prepared as 10 mM solutions in DMSO and diluted using media. The final concentration of DMSO in each well was 0.5% and this amount was present in the untreated control as well. Cisplatin was prepared as a 5 mM solution in PBS and diluted further using media. After 72 h, the medium was removed, 200 μL of a 0.4 mg/mL solution of MTT in DMEM or RPMI was added, and the plate was incubated for an additional 1-2 h. The DMEM/MTT or RPMI/MTT mixture was aspirated and 200 μL of DMSO was added to dissolve the resulting purple formazan crystals. The absorbance of the solution wells was read at 550 nm. Absorbance values were normalized to DMSO-containing control wells and plotted as concentration of test compound versus % cell viability. IC50 values were interpolated from the resulting dose dependent curves. The reported IC50 values are the average from at least three independent experiments, each of which consisted of six replicates per concentration level.
# For specific pathway and cell death inhibitor assays, inhibitors of p53 (pifithrin-α, 10 μM and pifithrin-μ, 10 μM), ER stress (salubrinal, 10 μM), necrosis (IM-54, 10 μM), and autophagocytosis (chloroquine, 10 μM) were added to cells and incubated for 0-1 h prior to treatment with the test compounds.
# HMLER^tax CSC-enriched = assay: Cytotoxicity against CSC-enriched breast cancer cells; format: cell-based; conditions: for HMLER^tax selectivity: CSC-enriched vs CSC-depleted
# Excerpt: (§2) Cancer relapse is strongly linked to the existence of CSCs. […] Conventional chemotherapy and radiotherapy are often ineffective against CSCs. Although current therapies effectively reduce tumor mass by destroying the bulk of cancer cells, they are unable to remove CSCs, which persist and generate new tumors, often of a far more aggressive nature. Therefore, in order to improve clinical outcomes, treatments must have the ability to kill the entirety of cancer cells, including CSCs. The osmium compound, described in Formula (I), wherein X^1, X^2, and X^3 were chloride ligands and the bidentate ligand was a 1,10-phenanthroline ligand, was able to kill breast cancer cells (HMLER) enriched with CSCs, 2.3-fold better than CSC-depleted breast cancer cells. […] The selectivity of the osmium compound can be seen in Table 2 as well as FIGS. 17A-B and 18.
# as §1
# A549 (lung) = assay: Cytotoxicity MTT assay; format: cell-based, human; conditions: 72 h
# Description: (§3) The anti-proliferative properties of 1-4 against a panel of human cancer cell lines were assessed by the MTT [3-(4,5-dimethylthiazol-2-yl)-2,5-diphenyltetrazolium bromide] assay. Cisplatin was included as a control. The IC50 values, concentrations required to induce 50% viability, were derived from dose-response curves and are summarized in Table 1.
# (§4) A549 lung adenocarcinoma, HeLa cervical cancer, and MRC5 normal human fetal lung fibroblast cell lines were maintained in Dulbecco's Modified Eagle's Medium (DMEM-low glucose) supplemented with 10% fetal bovine serum and 1% penicillin/streptomycin. The cisplatin-sensitive A2780 ovarian cancer and the cisplatin-resistant A2780/CP70 ovarian cancer cell lines were cultured in RPMI (glutamine free) media supplemented with 10% fetal bovine serum and 1% penicillin/streptomycin. All cells were grown at 310 K in a humidified atmosphere containing 5% CO2.
# as §1
# HeLa (cervical) = assay: Cytotoxicity MTT assay; format: cell-based, human; conditions: 72 h
# Description: as §3, §4, §1
# A2780/CP70 (ovarian) = assay: Cytotoxicity MTT assay; format: cell-based, human; conditions: 72 h, cisplatin-resistant
# Description: as §3, §4, §1
# A2780 (ovarian) = assay: Cytotoxicity MTT assay; format: cell-based, human; conditions: MTT, 72 h
# Description: as §3, §4, §1
# MRC-5 (lung normal) = assay: Cytotoxicity MTT assay; format: cell-based, human; conditions: 72 h
# Description: as §3, §4, §1
# HMLER CSC-depleted = assay: Cytotoxicity against CSC-depleted breast cancer cells; format: cell-based
# Excerpt: as §2, §1
# [1] = Water-octanol partition coefficient (log P), shake-flask method with GF-AAS; format: physicochemical; conditions: room temperature, 50 μM
# Description: Those of ordinary skill in the art would be knowledgeable of methods of determining the water-octanol partition coefficient of compounds. For example, the log P of a compound may be obtained using the shake-flask method and graphite furnace atomic absorption spectroscopy (GF-AAS). Briefly, in the shake-flask method, octanol is pre-saturated with water by overnight incubation with shaking of a biphasic mixture of the two at room temperature. A portion of 0.5 mL water containing 50 μM of the given compound is incubated with the pre-saturated octanol (0.5 mL) in a 1.5 mL tube. The tube is shaken at room temperature for 3 hours. The two phases are separated by centrifugation and the osmium content (concentration) in each phase is determined by GFAAS. The log P is then calculated using the formula below: log P=log 10[(concentration of osmium in the octanol layer)/(concentration of osmium in the water layer)].
# The log P values were obtained using the shake-flask method and graphite furnace atomic absorption spectroscopy (GF-AAS). Octanol used in this experiment was pre-saturated with water by overnight incubation with shaking of a biphasic mixture of the two at room temperature. A portion of 0.5 mL water containing 50 μM of the given compound was incubated with the pre-saturated octanol (0.5 mL) in a 1.5 mL tube. The tube was shaken at room temperature for 3 h. The two phases were separated by centrifugation and the osmium content (concentration) in each phase was determined by GFAAS. All the experiments were carried out in triplicate. The log P was then calculated using the formula below: Log P=log 10[(conc. of osmium in the octanol layer)/(conc. of osmium in the water layer)].
molecule,measurement,setting,value
"N.N.[Cl][Pt][Cl] [cisplatin, reference compound]",effect of salubrinal on toxicity,A2780 cells,limited effect
same,IC50,HMLER^tax CSC-enriched,2.06 µM
same,HMLER^tax selectivity,HMLER^tax CSC-enriched,0.95
same,IC50,A549 (lung),3.59 ± 0.92 µM
same,IC50,HeLa (cervical),2.83 ± 0.06 µM
same,IC50,A2780/CP70 (ovarian),10.3 ± 1.5 µM
same,IC50,A2780 (ovarian),1.41 ± 0.37 µM
same,IC50,MRC-5 (lung normal),11.1 ± 1.33 µM
same,IC50,HMLER CSC-depleted,1.95 µM
CC[C@@H](C(=O)[C@@H](C)[C@@H](O)[C@H](C)[C@@H]1O[C@@H]([C@@H](CC)C(=O)O)CC[C@@H]1C)[C@H]1O[C@]2(C=C[C@@H](O)[C@]3(CC[C@@](C)([C@H]4CC[C@](O)(CC)[C@H](C)O4)O3)O2)[C@H](C)C[C@@H]1C [salinomycin],IC50,HMLER^tax CSC-enriched,0.058 µM
same,HMLER^tax selectivity,HMLER^tax CSC-enriched,8.45
same,IC50,HMLER CSC-depleted,0.49 µM
CC(=O)[O][Pt]([NH2])([Cl])([Cl])([NH]C1CCCCC1)[O]C(C)=O [satraplatin],IC50,HMLER^tax CSC-enriched,2.87 µM
same,HMLER^tax selectivity,HMLER^tax CSC-enriched,0.43
same,IC50,HMLER CSC-depleted,1.22 µM
abamectin,IC50,HMLER^tax CSC-enriched,0.64 µM
same,HMLER^tax selectivity,HMLER^tax CSC-enriched,2.26
same,IC50,HMLER CSC-depleted,1.45 µM
N.N.O=C([O-])C1(C(=O)[O-])CCC1.[Pt+2] [carboplatin],IC50,HMLER^tax CSC-enriched,18.2 µM
same,HMLER^tax selectivity,HMLER^tax CSC-enriched,0.98
same,IC50,HMLER CSC-depleted,17.8 µM
"OsN(2,2′-bipyridine)Cl3 [Complex 1]",log P (water-octanol coefficient),[1],0.71
same,IC50,A549 (lung),6.11 ± 0.87 µM
same,IC50,HeLa (cervical),9.24 ± 0.58 µM
same,IC50,A2780/CP70 (ovarian),3.94 ± 1.75 µM
same,IC50,A2780 (ovarian),3.8 ± 0.21 µM
same,IC50,MRC-5 (lung normal),21.6 ± 4.85 µM
"CC1=C[N]2c3c4c(ccc3=C1C)=C(C)C(C)=C[N]4[Os]2(#[N])([Cl])([Cl])[Cl] [Complex 3, OsN(3,4,7,8-tetramethyl-1,10-phenanthroline)Cl3]",log P (water-octanol coefficient),[1],1.54
same,IC50,A549 (lung),14.9 ± 1.63 µM
same,IC50,HeLa (cervical),6.34 ± 0.52 µM
same,IC50,A2780/CP70 (ovarian),3.91 ± 0.26 µM
same,IC50,A2780 (ovarian),7.97 ± 1.41 µM
same,IC50,MRC-5 (lung normal),17.2 ± 2.16 µM
O=C1[O][Pt]2([NH][C@@H]3CCCC[C@H]3[NH]2)[O]C1=O [oxaliplatin],IC50,HMLER^tax CSC-enriched,26.9 µM
same,HMLER^tax selectivity,HMLER^tax CSC-enriched,0.55
same,IC50,HMLER CSC-depleted,15 µM
